Experimental findings from patent US5591714A, “Derivatives of A82846” (priority 1994, dated 1997) are described below.

SMILES strings stand for the structures. Converted amounts (≈) assume the structure as drawn.

Assay [1] concerns Escherichia coli EC14. The assay is described as follows: MIC, standard agar-dilution assay. The format is cell-based. As to the method:
(§1) The formula I compounds have in vitro and in vivo activity against Gram-positive pathogenic bacteria. The MIC's were determined using a standard agar-dilution assays.

For assay [2], the system named is Escherichia coli N10. Briefly: MIC, standard agar-dilution assay. The format is cell-based. The procedure: as §1
Assay [3] relates to Escherichia coli TEM. The assay is described as follows: MIC, standard agar-dilution assay. The format is cell-based. As to the method:
as §1

Assay [4] relates to Haemophilus influenzae 76. Briefly: MIC, standard agar-dilution assay. The format is cell-based. As to the method:
as §1

Assay [5] has as its system Haemophilus influenzae C.L. Briefly: MIC, standard agar-dilution assay. In kind it is cell-based. The procedure: as §1
The test system of assay [6] is Klebsiella pneumoniae KAE. Briefly: MIC, standard agar-dilution assay. The format is cell-based. As to the method:
as §1

Assay [7] has as its system Klebsiella pneumoniae X26. The assay is described as follows: MIC, standard agar-dilution assay. In kind it is cell-based. As to the method:
as §1

In assay [8] the test system is Klebsiella pneumoniae X68. Briefly: MIC, standard agar-dilution assay. In kind it is cell-based. As to the method:
as §1

In assay [9] the test system is Staphylococcus aureus NRRL X1.1. The assay is described as follows: MIC, standard agar-dilution assay. In kind it is cell-based. The procedure:
as §1

The test system of assay [10] is Staphylococcus aureus V41. The assay is described as follows: MIC, standard agar-dilution assay. The format is cell-based. As to the method: as §1
The test system of assay [11] is Staphylococcus aureus X400. The assay is described as follows: MIC, standard agar-dilution assay. The format is cell-based. The procedure: as §1
Assay [12] concerns Staphylococcus epidermidis 222. Briefly: MIC, standard agar-dilution assay. In kind it is cell-based. As to the method: as §1
Assay [13] concerns Staphylococcus epidermidis EPI270. Briefly: MIC, standard agar-dilution assay. The format is cell-based. The procedure: as §1
In assay [14] the test system is Streptococcus pyogenes C203. The assay is described as follows: MIC, standard agar-dilution assay. The format is cell-based. As to the method: as §1
In assay [15] the test system is Staphylococcus aureus S13E. In kind it is cell-based. The procedure: as §1
Assay [16] concerns Streptococcus pneumoniae Park 1. In kind it is cell-based. The procedure:
as §1

Assay [17] deals with Enterococcus faecium X66. The assay is described as follows: MIC, standard agar-dilution assay. The format is cell-based. The procedure: as §1
^b Formerly Streptococcus faecium X66

Assay [18] concerns Enterococcus faecalis 2041. The assay is described as follows: MIC, standard agar-dilution assay. In kind it is cell-based. The procedure:
as §1
^c Formerly Streptococcus faecalis 2041

Assay [19] relates to Staphylococcus aureus. Briefly: In vivo activity, experimentally infected mice (ED50). As to conditions: Staphylococcus aureus infection; doses administered subcutaneously to mice 1 and 4 hours postinfection.
The test system of assay [20] is Streptococcus pyogenes. Described as above. The note with it: Streptococcus pyogenes infection; doses administered subcutaneously to mice 1 and 4 hours postinfection.
Assay [21] concerns Streptococcus pneumoniae. Described as above. As to conditions: Streptococcus pneumoniae infection; doses administered subcutaneously to mice 1 and 4 hours postinfection.
Assay [22] deals with vancomycin-resistant (Vanco^r) E. faecium and E. faecalis. The assay is described as follows: Susceptibility of vancomycin-resistant enterococci, agar-dilution MIC. In kind it is cell-based. As to conditions: for Geometric Mean MIC, Vanco^r Strains: n = 25 strains, end points read after 24-hour incubation. As to the method:
(§2) End points were read after 24-hour incubation. The ratio was calculated by dividing the mean MIC of the compound against the vancomycin-resistant strains by the mean MIC of the compound against the vancomycin-susceptible strains.

Assay [23] has as its system vancomycin-susceptible (Vanco^s) E. faecium and E. faecalis. Briefly: Susceptibility of vancomycin-susceptible enterococci, agar-dilution MIC. The format is cell-based. The note with it: n = 34 strains; end points read after 24-hour incubation. As to the method: as §2

With `CCCCCCCCN[C@@]1(C)C[C@H](O[C@H]2[C@H](Oc3c4cc5cc3Oc3ccc(cc3Cl)[C@@H](O)[C@@H](NC(=O)[C@@H](CC(C)C)NC)C(=O)N[C@@H](CC(N)=O)C(=O)N[C@H]5C(=O)N[C@H]3C(=O)N[C@H](C(=O)N[C@H](C(=O)O)c5cc(O)cc(O)c5-c5cc3ccc5O)[C@H](O[C@H]3C[C@](C)(N)[C@@H](O)[C@H](C)O3)c3ccc(cc3)O4)O[C@H](CO)[C@@H](O)[C@@H]2O)O[C@@H](C)[C@@H]1O` [Compound 1], the MIC in assay [1], in [2], in assay [3], in assay [4], in assay [5] and in assay [6] was greater than 128 µg/mL in each case. The MIC was greater than 128 µg/mL in assay [7]; greater than 128 µg/mL in assay [8]; 1 µg/mL (≈ 0.599 µM) in assay [9]; 1 µg/mL (≈ 0.599 µM) in [10]; 1 µg/mL (≈ 0.599 µM) in [11]; 1 µg/mL (≈ 0.599 µM) in [12]. The MIC in assay [13] was 1 µg/mL (≈ 0.599 µM); in assay [14], “.25 µg/mL”; in assay [15], “.5 µg/mL”; in [16], “.5 µg/mL”; in [17], 1 µg/mL (≈ 0.599 µM); in assay [18] it was 1 µg/mL (≈ 0.599 µM). Further, the ED50 in [19] came to 3.35 mg/kg/2; in assay [20], 0.43 mg/kg/2; in assay [21], 0.43 mg/kg/2. The “Ratio (mean MIC vancomycin-resistant strains / mean MIC vancomycin-susceptible strains)” value in assay [22] came to 4.9. Moreover, the “Geometric Mean MIC, Vanco^r Strains” value in assay [22] worked out at 9.7 µg/mL. In addition, the “Geometric Mean MIC, Vanco^s Strains” value in [23] was found to be 2.2 µg/mL.

Consider `CN[C@H](CC(C)C)C(=O)N[C@H]1C(=O)N[C@@H](CC(N)=O)C(=O)N[C@H]2C(=O)N[C@H]3C(=O)N[C@H](C(=O)N[C@H](C(=O)O)c4cc(O)cc(O)c4-c4cc3ccc4O)[C@H](O[C@H]3C[C@](C)(N)[C@@H](O)[C@H](C)O3)c3ccc(c(Cl)c3)Oc3cc2cc(c3O[C@@H]2O[C@H](CO)[C@@H](O)[C@H](O)[C@H]2O[C@H]2C[C@](C)(NCCc3ccccc3)[C@@H](O)[C@H](C)O2)Oc2ccc(cc2Cl)[C@H]1O` [Compound 43], for which the MIC in [1], in assay [2], in assay [3], in [4], in [5] and in [6] was greater than 128 µg/mL throughout. In addition, the MIC in assay [7] was greater than 128 µg/mL; in assay [8], greater than 128 µg/mL; in [9], “.25 µg/mL”; in assay [10], “.5 µg/mL”; in [11] it was 1 µg/mL (≈ 0.589 µM); in assay [12], “.25 µg/mL”. For the same compound, the MIC is 1 µg/mL (≈ 0.589 µM) in [13]; “.5 µg/mL” in assay [14]; 1 µg/mL (≈ 0.589 µM) in assay [15]; “.125 µg/mL” in [16]; 1 µg/mL (≈ 0.589 µM) in [17]; “.5 µg/mL” in assay [18]. The ED50 in [19] was 0.125 mg/kg/2; in assay [20], 0.38 mg/kg/2; in assay [21], 0.11 mg/kg/2. Moreover, the “Ratio (mean MIC vancomycin-resistant strains / mean MIC vancomycin-susceptible strains)” value in assay [22] amounted to 5.2. For the same compound, the “Geometric Mean MIC, Vanco^r Strains” value in assay [22] stood at 4.0 µg/mL. Besides, the “Geometric Mean MIC, Vanco^s Strains” value in assay [23] stood at 0.77 µg/mL.

Consider `CNC(CC(C)C)C(=O)NC1C(=O)NC(CC(N)=O)C(=O)NC2C(=O)NC3C(=O)NC(C(=O)NC(C(=O)O)c4cc(O)cc(O)c4-c4cc3ccc4O)C(OC3CC(C)(N)C(O)C(C)O3)c3ccc(c(Cl)c3)Oc3cc2cc(c3OC2OC(CO)C(O)C(O)C2OC2CC(C)(NCc3cccc(Cl)c3)C(O)C(C)O2)Oc2ccc(cc2Cl)C1O` (stereo not drawn) [Compound 64], for which the MIC in [1], in assay [2], in [3], in [4], in assay [5] and in assay [6] was greater than 128 µg/mL throughout. In addition, the MIC was greater than 128 µg/mL in [7]; greater than 128 µg/mL in assay [8]; “.25 µg/mL” in assay [9]; “.25 µg/mL” in [10]; “.5 µg/mL” in [11]; “.5 µg/mL” in [12]. Further, the MIC entry in assay [13] is “.25 µg/mL”; in [14] it was “.06 µg/mL”; in [15], “.5 µg/mL”; in assay [16], “.25 µg/mL”; in [17], “.25 µg/mL”; in [18], “.25 µg/mL”. The ED50 in assay [19] was found to be 0.55 mg/kg/2; in assay [20], 0.94 mg/kg/2; in assay [21] it was 0.10 mg/kg/2.

For `CNC(CC(C)C)C(=O)NC1C(=O)NC(CC(N)=O)C(=O)NC2C(=O)NC3C(=O)NC(C(=O)NC(C(=O)O)c4cc(O)cc(O)c4-c4cc3ccc4O)C(OC3CC(C)(NCc4ccccc4)C(O)C(C)O3)c3ccc(cc3)Oc3cc2cc(c3OC2OC(CO)C(O)C(O)C2O)Oc2ccc(cc2Cl)C1O` (stereo not drawn) [Compound 70], the MIC in [1], in assay [2], in assay [3], in [4], in assay [5] and in assay [6] was greater than 128 µg/mL in each case. The MIC in assay [7] was greater than 128 µg/mL; in assay [8], greater than 128 µg/mL; in assay [9] it was 2 µg/mL (≈ 1.33 µM); in [10], 2 µg/mL (≈ 1.33 µM); in assay [11], 2 µg/mL (≈ 1.33 µM); in [12], 2 µg/mL (≈ 1.33 µM). Further, the MIC entry is “.5 µg/mL” in assay [13]; 2 µg/mL (≈ 1.33 µM) in assay [14]; 2 µg/mL (≈ 1.33 µM) in assay [15]; 2 µg/mL (≈ 1.33 µM) in [16]; 2 µg/mL (≈ 1.33 µM) in assay [17]; 2 µg/mL (≈ 1.33 µM) in assay [18]. In addition, the ED50 in assay [19] is recorded as 4.10 mg/kg/2; in assay [20] it was 2.38 mg/kg/2; in [21], 3.76 mg/kg/2.

As for `CNC(CC(C)C)C(=O)NC1C(=O)NC(CC(N)=O)C(=O)NC2C(=O)NC3C(=O)NC(C(=O)NC(C(=O)O)c4cc(O)cc(O)c4-c4cc3ccc4O)C(OC3CC(C)(NCc4ccccc4)C(O)C(C)O3)c3ccc(cc3)Oc3cc2cc(c3O)Oc2ccc(cc2Cl)C1O` (stereo not drawn) [Compound 73], the MIC in assay [1] was greater than 128 µg/mL; in assay [2], greater than 128 µg/mL; in [3], greater than 128 µg/mL; in [4], greater than 64 µg/mL; in [5], greater than 128 µg/mL; in assay [6], greater than 128 µg/mL. In addition, the MIC in [7] is greater than 128 µg/mL; in [8], greater than 128 µg/mL; in assay [9], 1 µg/mL (≈ 0.745 µM); in [10] it was 1 µg/mL (≈ 0.745 µM); in [11], 1 µg/mL (≈ 0.745 µM); in assay [12], 2 µg/mL (≈ 1.49 µM). Also, the MIC result in [13] was “.25 µg/mL”; in [14], 1 µg/mL (≈ 0.745 µM); in [15], 1 µg/mL (≈ 0.745 µM); in [16] it was 1 µg/mL (≈ 0.745 µM); in assay [17], 1 µg/mL (≈ 0.745 µM); in assay [18], 2 µg/mL (≈ 1.49 µM). Moreover, the results for the ED50 in [19], in assay [20] and in [21] were greater than 8.0 mg/kg/2, 7.30 mg/kg/2 and greater than 8.0 mg/kg/2, respectively.

As for `CNC(CC(C)C)C(=O)NC1C(=O)NC(CC(N)=O)C(=O)NC2C(=O)NC3C(=O)NC(C(=O)NC(C(=O)O)c4cc(O)cc(O)c4-c4cc3ccc4O)C(OC3CC(C)(NCc4ccccc4)C(O)C(C)O3)c3ccc(c(Cl)c3)Oc3cc2cc(c3OC2OC(CO)C(O)C(O)C2O)Oc2ccc(cc2Cl)C1O` (stereo not drawn) [Compound 76], the MIC in [1], in [2], in assay [3], in assay [4], in assay [5] and in assay [6] was greater than 128 µg/mL throughout. The MIC was greater than 128 µg/mL in assay [7]; greater than 128 µg/mL in assay [8]; “.25 µg/mL” in assay [9]; “.25 µg/mL” in assay [10]; “.25 µg/mL” in assay [11]; “.5 µg/mL” in [12]. Besides, the MIC in assay [13] was 2 µg/mL (≈ 1.3 µM); in assay [14], “.5 µg/mL”; in assay [15], “.25 µg/mL”; in assay [16], 1 µg/mL (≈ 0.65 µM); in assay [17], 1 µg/mL (≈ 0.65 µM); in assay [18], 1 µg/mL (≈ 0.65 µM). The results for the ED50 in assay [19], in assay [20] and in [21] were 0.87 mg/kg/2, 0.62 mg/kg/2 and 0.42 mg/kg/2, respectively.
